Test results as given in ChEMBL document CHEMBL5046255, “Design and synthesis of dual inhibitors targeting snail and histone deacetylase for the treatment of solid tumour cancer” (Eur J Med Chem, 2022).

Target: Histone deacetylase 1 (Homo sapiens, UniProt Q13547)
Experiment: Inhibition of HDAC1 (unknown origin) using p53 (379 to 382 residues) (RHKK(Ac-AMC) as fluorogenic substrate incubated for 1 hrs by fluorescence based assay
Settings: not given

Sequence of Histone deacetylase 1 (Q13547 whole entry, the tested form may be a part): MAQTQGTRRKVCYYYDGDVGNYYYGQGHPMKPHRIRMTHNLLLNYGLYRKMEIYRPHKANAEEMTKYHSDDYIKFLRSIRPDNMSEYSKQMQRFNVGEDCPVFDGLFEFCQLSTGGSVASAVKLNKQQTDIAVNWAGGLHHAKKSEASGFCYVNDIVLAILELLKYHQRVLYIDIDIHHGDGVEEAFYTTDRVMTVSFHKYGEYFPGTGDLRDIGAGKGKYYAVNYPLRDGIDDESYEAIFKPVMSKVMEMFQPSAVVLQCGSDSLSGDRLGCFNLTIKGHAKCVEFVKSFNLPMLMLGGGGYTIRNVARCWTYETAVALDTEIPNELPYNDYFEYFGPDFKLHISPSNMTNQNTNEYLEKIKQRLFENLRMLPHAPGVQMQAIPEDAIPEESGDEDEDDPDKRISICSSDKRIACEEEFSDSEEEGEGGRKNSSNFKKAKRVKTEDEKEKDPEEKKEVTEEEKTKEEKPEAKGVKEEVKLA

Structure (SMILES)	IC50
CC(C)(C)c1cc(Nc2nc(SCc3ccc(C(=O)Nc4ccc(F)cc4N)cc3)nn3cccc23)n[nH]1	1540 nM
COc1ccc(CNc2nc(SCc3ccc(C(=O)Nc4ccc(F)cc4N)cc3)nn3cccc23)cc1	5040 nM
CC(C)(C)OC(=O)N1CCC(Nc2nc(SCc3ccc(C(=O)Nc4ccccc4N)cc3)nn3cccc23)CC1	871 nM
COc1ccc(CNc2nc(SCc3ccc(C(=O)Nc4ccc(F)cc4N)cc3)nn3cccc23)cc1OC	8160 nM
Nc1ccccc1NC(=O)c1ccc(CSc2nc(N3CCOCC3)c3cccn3n2)cc1	204 nM
Nc1cc(F)ccc1NC(=O)c1ccc(CSc2nc(N3CCOCC3)c3cccn3n2)cc1	2310 nM
Nc1ccccc1NC(=O)c1ccc(CSc2nc(NC3CCNCC3)c3cccn3n2)cc1	493 nM
Nc1cc(F)ccc1NC(=O)c1ccc(CSc2nc(NCc3ccc(F)cc3)c3cccn3n2)cc1	> 10000 nM
CC(C)(C)c1cc(Nc2nc(SCc3ccc(C(=O)Nc4ccccc4N)cc3)nn3cccc23)n[nH]1	238 nM
Cc1cccnc1Nc1nc(SCc2ccc(C(=O)Nc3ccccc3N)cc2)nn2cccc12	204 nM
Nc1cc(F)ccc1NC(=O)c1ccc(CSc2nc(NCc3ccc(C(F)(F)F)cc3)c3cccn3n2)cc1	> 10000 nM
CC(C)(C)OC(=O)N1CCC(Nc2nc(SCc3ccc(C(=O)Nc4ccc(F)cc4N)cc3)nn3cccc23)CC1	4500 nM
COc1ccc(CNc2nc(SCc3ccc(C(=O)Nc4ccc(F)cc4N)cc3)nn3cccc23)c(OC)c1	> 10000 nM
Nc1ccccc1NC(=O)c1ccc(CSc2nc(Nc3cc[nH]n3)c3cccn3n2)cc1	148 nM
COc1ccc(CNc2nc(SCc3ccc(C(=O)Nc4ccccc4N)cc3)nn3cccc23)cc1	392 nM
Cc1cccnc1Nc1nc(SCc2ccc(C(=O)Nc3ccc(F)cc3N)cc2)nn2cccc12	1320 nM
COc1ccc(CNc2nc(SCc3ccc(C(=O)Nc4ccccc4N)cc3)nn3cccc23)c(OC)c1	336 nM
Nc1cc(F)ccc1NC(=O)c1ccc(CSc2nc(Nc3cc[nH]n3)c3cccn3n2)cc1	595 nM
Nc1ccccc1NC(=O)c1ccc(CSc2nc(NCc3ccc(F)cc3)c3cccn3n2)cc1	481 nM
Nc1ccccc1NC(=O)c1ccc(CSc2nc(NCc3ccc(C(F)(F)F)cc3)c3cccn3n2)cc1	1730 nM
Nc1cc(F)ccc1NC(=O)c1ccc(CSc2nc(NC3CCNCC3)c3cccn3n2)cc1	2370 nM
COc1ccc(CNc2nc(SCc3ccc(C(=O)Nc4ccccc4N)cc3)nn3cccc23)cc1OC	406 nM
Cc1cc(Nc2nc(SCc3ccc(C(=O)Nc4ccccc4N)cc3)nn3cccc23)n[nH]1	152 nM

Test system: HCT-116
Experiment: Antiproliferative activity against human HCT-116 cells assessed as cell viability at 1 uM incubated for 72 hrs by luminescence assay
Assay type: functional, cell-based
Settings: HCT-116, 72 h

Structure (SMILES)	IC50
COc1ccc(CNc2nc(SCc3ccc(C(=O)Nc4ccc(F)cc4N)cc3)nn3cccc23)cc1	997 nM
Nc1ccccc1NC(=O)c1ccc(CSc2nc(N3CCOCC3)c3cccn3n2)cc1	1090 nM
Nc1cc(F)ccc1NC(=O)c1ccc(CSc2nc(N3CCOCC3)c3cccn3n2)cc1	948 nM
Cc1cccnc1Nc1nc(SCc2ccc(C(=O)Nc3ccccc3N)cc2)nn2cccc12	1370 nM
COc1ccc(CNc2nc(SCc3ccc(C(=O)Nc4ccccc4N)cc3)nn3cccc23)cc1	292 nM
Cc1cccnc1Nc1nc(SCc2ccc(C(=O)Nc3ccc(F)cc3N)cc2)nn2cccc12	857 nM
Nc1cc(F)ccc1NC(=O)c1ccc(CSc2nc(Nc3cc[nH]n3)c3cccn3n2)cc1	731 nM
Cc1cc(Nc2nc(SCc3ccc(C(=O)Nc4ccccc4N)cc3)nn3cccc23)n[nH]1	959 nM
Nc1cc(F)ccc1NC(=O)c1ccc(CNC(=O)/C=C/c2cccnc2)cc1 [TUCIDINOSTAT]	2080 nM

Same assay, conditions: HCT-116, dose 1 µM, time 72 hrs, read-out: Activity

Structure (SMILES)	viability at 1 µM
CC(C)(C)c1cc(Nc2nc(SCc3ccc(C(=O)Nc4ccc(F)cc4N)cc3)nn3cccc23)n[nH]1	108%
CC(C)(C)OC(=O)N1CCC(Nc2nc(SCc3ccc(C(=O)Nc4ccccc4N)cc3)nn3cccc23)CC1	103%
COc1ccc(CNc2nc(SCc3ccc(C(=O)Nc4ccc(F)cc4N)cc3)nn3cccc23)cc1OC	73.9%
Nc1ccccc1NC(=O)c1ccc(CSc2nc(NC3CCNCC3)c3cccn3n2)cc1	78.5%
Nc1cc(F)ccc1NC(=O)c1ccc(CSc2nc(NCc3ccc(F)cc3)c3cccn3n2)cc1	89.3%
CC(C)(C)c1cc(Nc2nc(SCc3ccc(C(=O)Nc4ccccc4N)cc3)nn3cccc23)n[nH]1	96.1%
Nc1cc(F)ccc1NC(=O)c1ccc(CSc2nc(NCc3ccc(C(F)(F)F)cc3)c3cccn3n2)cc1	107%
CC(C)(C)OC(=O)N1CCC(Nc2nc(SCc3ccc(C(=O)Nc4ccc(F)cc4N)cc3)nn3cccc23)CC1	105%
COc1ccc(CNc2nc(SCc3ccc(C(=O)Nc4ccc(F)cc4N)cc3)nn3cccc23)c(OC)c1	92.5%
Nc1ccccc1NC(=O)c1ccc(CSc2nc(Nc3cc[nH]n3)c3cccn3n2)cc1	60.3%
COc1ccc(CNc2nc(SCc3ccc(C(=O)Nc4ccccc4N)cc3)nn3cccc23)c(OC)c1	92.5%
Nc1ccccc1NC(=O)c1ccc(CSc2nc(NCc3ccc(F)cc3)c3cccn3n2)cc1	83.1%
Nc1ccccc1NC(=O)c1ccc(CSc2nc(NCc3ccc(C(F)(F)F)cc3)c3cccn3n2)cc1	102%
Nc1cc(F)ccc1NC(=O)c1ccc(CSc2nc(NC3CCNCC3)c3cccn3n2)cc1	95.8%
COc1ccc(CNc2nc(SCc3ccc(C(=O)Nc4ccccc4N)cc3)nn3cccc23)cc1OC	73.9%

Test system: HCT-116
Experiment: Antiproliferative activity against human HCT-116 cells assessed as reduction in cell viability incubated for 72 hrs by luminescence assay
Assay type: functional, cell-based
Settings: HCT-116, 72 h

Structure (SMILES)	IC50
Nc1ccccc1NC(=O)c1ccc(CSc2nc(Nc3cc[nH]n3)c3cccn3n2)cc1	1550 nM

Target: not listed separately
Experiment: Binding affinity to SNAI1 (unknown origin) assessed as dissociation constant
Design: species or system Homo sapiens
Settings: not given

Structure (SMILES)	Kd
COc1ccc(CNc2nc(SCc3ccc(C(=O)Nc4ccc(F)cc4N)cc3)nn3cccc23)cc1	514 nM
Nc1ccccc1NC(=O)c1ccc(CSc2nc(N3CCOCC3)c3cccn3n2)cc1	905 nM
Nc1cc(F)ccc1NC(=O)c1ccc(CSc2nc(N3CCOCC3)c3cccn3n2)cc1	754 nM
Cc1cccnc1Nc1nc(SCc2ccc(C(=O)Nc3ccccc3N)cc2)nn2cccc12	945 nM
Nc1ccccc1NC(=O)c1ccc(CSc2nc(Nc3cc[nH]n3)c3cccn3n2)cc1	984 nM
COc1ccc(CNc2nc(SCc3ccc(C(=O)Nc4ccccc4N)cc3)nn3cccc23)cc1	356 nM
Cc1cccnc1Nc1nc(SCc2ccc(C(=O)Nc3ccc(F)cc3N)cc2)nn2cccc12	875 nM
Nc1cc(F)ccc1NC(=O)c1ccc(CSc2nc(Nc3cc[nH]n3)c3cccn3n2)cc1	426 nM
Cc1cc(Nc2nc(SCc3ccc(C(=O)Nc4ccccc4N)cc3)nn3cccc23)n[nH]1	562 nM
Nc1cc(F)ccc1NC(=O)c1ccc(CNC(=O)/C=C/c2cccnc2)cc1 [TUCIDINOSTAT]	> 10000 nM

Test system: not listed separately
Experiment: Metabolic stability in human liver microsomes assessed as half life incubated for 10 mins by LC-MS/MS analysis
Assay type: ADME, Microsome
Settings: not given

Structure (SMILES)	half-life
Nc1cc(F)ccc1NC(=O)c1ccc(CNC(=O)/C=C/c2cccnc2)cc1 [TUCIDINOSTAT]	6.27 h

Test system: not listed separately
Experiment: Metabolic stability in monkey liver microsomes assessed as half life incubated for 10 mins by LC-MS/MS analysis
Assay type: ADME, Macaca mulatta, Microsome
Settings: rhesus monkey

Structure (SMILES)	half-life
Nc1cc(F)ccc1NC(=O)c1ccc(CNC(=O)/C=C/c2cccnc2)cc1 [TUCIDINOSTAT]	2.05 h

Test system: not listed separately
Experiment: Metabolic stability in dog liver microsomes assessed as half life incubated for 10 mins by LC-MS/MS analysis
Assay type: ADME, Canis lupus familiaris, Microsome
Settings: not given

Structure (SMILES)	half-life
Nc1cc(F)ccc1NC(=O)c1ccc(CNC(=O)/C=C/c2cccnc2)cc1 [TUCIDINOSTAT]	8.37 h

Test system: not listed separately
Experiment: Metabolic stability in rat liver microsomes assessed as half life incubated for 10 mins by LC-MS/MS analysis
Assay type: ADME, Microsome
Settings: not given

Structure (SMILES)	half-life
Nc1cc(F)ccc1NC(=O)c1ccc(CNC(=O)/C=C/c2cccnc2)cc1 [TUCIDINOSTAT]	3.17 h

Test system: not listed separately
Experiment: Metabolic stability in human liver microsomes assessed as intrinsic clearance incubated for 10 mins by LC-MS/MS analysis
Assay type: ADME, Microsome
Settings: read-out: CLH

Structure (SMILES)	microsomal CLint
Nc1cc(F)ccc1NC(=O)c1ccc(CNC(=O)/C=C/c2cccnc2)cc1 [TUCIDINOSTAT]	4.18 µL/min/mg

Test system: not listed separately
Experiment: Metabolic stability in monkey liver microsomes assessed as intrinsic clearance incubated for 10 mins by LC-MS/MS analysis
Assay type: ADME, Macaca mulatta, Microsome
Settings: rhesus monkey, read-out: CLH

Structure (SMILES)	microsomal CLint
Nc1cc(F)ccc1NC(=O)c1ccc(CNC(=O)/C=C/c2cccnc2)cc1 [TUCIDINOSTAT]	11.2 µL/min/mg

Test system: not listed separately
Experiment: Metabolic stability in dog liver microsomes assessed as intrinsic clearance incubated for 10 mins by LC-MS/MS analysis
Assay type: ADME, Canis lupus familiaris, Microsome
Settings: read-out: CLH

Structure (SMILES)	microsomal CLint
Nc1cc(F)ccc1NC(=O)c1ccc(CNC(=O)/C=C/c2cccnc2)cc1 [TUCIDINOSTAT]	2.76 µL/min/mg

Test system: not listed separately
Experiment: Metabolic stability in rat liver microsomes assessed as intrinsic clearance incubated for 10 mins by LC-MS/MS analysis
Assay type: ADME, Microsome
Settings: read-out: CLH

Structure (SMILES)	microsomal CLint
Nc1cc(F)ccc1NC(=O)c1ccc(CNC(=O)/C=C/c2cccnc2)cc1 [TUCIDINOSTAT]	7.35 µL/min/mg

Test system: not listed separately
Experiment: Metabolic stability in dog plasma assessed as half life at 100 uM measured upto 120 mins by LC-MS/MS analysis
Assay type: ADME, cell-free, Canis lupus familiaris
Settings: not given

Structure (SMILES)	half-life at 100 µM
Nc1cc(F)ccc1NC(=O)c1ccc(CNC(=O)/C=C/c2cccnc2)cc1 [TUCIDINOSTAT]	16.3 h

Test system: not listed separately
Experiment: Metabolic stability in rat plasma assessed as half life at 100 uM measured upto 120 mins by LC-MS/MS analysis
Assay type: ADME, cell-free
Settings: not given

Structure (SMILES)	half-life at 100 µM
Nc1cc(F)ccc1NC(=O)c1ccc(CNC(=O)/C=C/c2cccnc2)cc1 [TUCIDINOSTAT]	8.83 h

Test system: not listed separately
Experiment: Metabolic stability in human plasma assessed as parent compound remaining at 100 uM measured after 2 hrs by LC-MS/MS analysis
Assay type: ADME, cell-free
Settings: read-out: Stability

Structure (SMILES)	remaining at 2 h, 100 µM
Nc1cc(F)ccc1NC(=O)c1ccc(CNC(=O)/C=C/c2cccnc2)cc1 [TUCIDINOSTAT]	109%

Test system: not listed separately
Experiment: Metabolic stability in monkey plasma assessed as parent compound remaining at 100 uM measured after 2 hrs by LC-MS/MS analysis
Assay type: ADME, cell-free, Macaca mulatta
Settings: rhesus monkey, read-out: Stability

Structure (SMILES)	remaining at 2 h, 100 µM
Nc1cc(F)ccc1NC(=O)c1ccc(CNC(=O)/C=C/c2cccnc2)cc1 [TUCIDINOSTAT]	102%

Test system: not listed separately
Experiment: Metabolic stability in dog plasma assessed as parent compound remaining at 100 uM measured after 2 hrs by LC-MS/MS analysis
Assay type: ADME, cell-free, Canis lupus familiaris
Settings: read-out: Stability

Structure (SMILES)	remaining at 2 h, 100 µM
Nc1cc(F)ccc1NC(=O)c1ccc(CNC(=O)/C=C/c2cccnc2)cc1 [TUCIDINOSTAT]	103%

Test system: not listed separately
Experiment: Metabolic stability in rat plasma assessed as parent compound remaining at 100 uM measured after 2 hrs by LC-MS/MS analysis
Assay type: ADME, cell-free
Settings: read-out: Stability

Structure (SMILES)	remaining at 2 h, 100 µM
Nc1cc(F)ccc1NC(=O)c1ccc(CNC(=O)/C=C/c2cccnc2)cc1 [TUCIDINOSTAT]	82.1%
